The source made the active and inactive calls.
Key:
[1] = A Cell-Based Confirmatory Screen for Compounds that Inhibit VEEV, TC-83 (2).; type: functional
[2] = test system: Vero; assay: cells; type: functional, cell-based; details: Chlorocebus sabaeus
[3] = A Cell-Based Confirmatory Screen for Compounds that Inhibit VEEV, TC-83 (8).; type: functional
[4] = test system: Vero; assay: cells; type: functional; details: Chlorocebus sabaeus
[5] = A Cell-Based Counter Screen testing Compounds that Inhibit VEEV TC-83, in strain KU V3526.; type: functional
[6] = HepG2 cell cytotoxicity, dose response, cytotoxicity control, ATP luminescence, cherry-pick, set 6 (AID 1053125); type: functional, cell-based
[7] = test system: BJ; assay: cytotoxicity toward BJ-TERT fibroblasts, dose response, cell-based, RAS-independent, luminescence (AID 1933); type: functional; details: Homo sapiens
[8] = test system: BJ; assay: cytotoxicity toward BJ-TERT-LT-ST fibroblasts, dose response, cell-based, RAS-independent, luminescence (AID 1935); type: functional; details: Homo sapiens;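 also: BJ fibroblasts immortalized with TERT plus LT and ST oncogenes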
[9] = biological target: T1, Leucine aminopeptidase (Plasmodium falciparum 3D7, UniProt Q8IL11); assay: P. falciparum M17LAP inhibitors, primary screen, biochemical, fluorogenic H-Leu-NHMec substrate, 1536-well (AID 1619); type: functional
T1 sequence (Q8IL11 whole entry): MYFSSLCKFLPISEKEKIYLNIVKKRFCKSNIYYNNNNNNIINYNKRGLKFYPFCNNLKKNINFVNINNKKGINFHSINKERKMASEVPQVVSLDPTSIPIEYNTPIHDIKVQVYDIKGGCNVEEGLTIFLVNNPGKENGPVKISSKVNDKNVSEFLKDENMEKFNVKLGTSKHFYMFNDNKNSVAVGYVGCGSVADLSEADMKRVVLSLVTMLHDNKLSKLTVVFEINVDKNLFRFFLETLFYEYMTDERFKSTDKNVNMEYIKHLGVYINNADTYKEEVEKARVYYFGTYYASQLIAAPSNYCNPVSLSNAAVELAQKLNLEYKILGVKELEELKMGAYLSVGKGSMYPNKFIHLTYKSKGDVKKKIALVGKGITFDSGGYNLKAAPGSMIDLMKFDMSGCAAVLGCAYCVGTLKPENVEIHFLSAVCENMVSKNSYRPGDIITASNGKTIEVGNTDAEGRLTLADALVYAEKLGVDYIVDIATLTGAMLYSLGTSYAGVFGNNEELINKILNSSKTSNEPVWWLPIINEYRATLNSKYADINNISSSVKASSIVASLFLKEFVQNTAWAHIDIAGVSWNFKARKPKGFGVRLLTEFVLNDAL

[10] = cells; details: A549
[11] = test system: BJ; assay: cells; type: functional, cell-based; details: Homo sapiens
[12] = cytotoxicity toward DRD oncogenic fibroblasts, dose response, cell-based, non-viral oncogenic, luminescence (AID 1934); type: functional; details: Homo sapiens
[13] = biological target: T2, Galanin receptor type 3 (Homo sapiens, UniProt O60755); assay: Fluorescence-based cell-based primary high throughput dose response assay to identify antagonists of the Galanin Receptor 3 (GalR3).; type: functional
T2 sequence (O60755 whole entry): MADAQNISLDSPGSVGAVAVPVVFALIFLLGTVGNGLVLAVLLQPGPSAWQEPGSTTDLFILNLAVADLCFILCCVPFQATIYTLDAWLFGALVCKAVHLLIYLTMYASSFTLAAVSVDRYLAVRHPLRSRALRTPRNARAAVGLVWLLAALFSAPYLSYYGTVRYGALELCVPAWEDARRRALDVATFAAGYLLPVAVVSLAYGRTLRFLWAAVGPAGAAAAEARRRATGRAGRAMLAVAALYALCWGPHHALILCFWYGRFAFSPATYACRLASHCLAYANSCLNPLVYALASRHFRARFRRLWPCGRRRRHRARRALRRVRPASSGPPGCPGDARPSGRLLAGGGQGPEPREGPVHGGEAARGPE

[14] = cells; type: functional, cell-based; details: HEK-CNG
[15] = cells; details: HEK293
[16] = inhibitors of control Renilla luciferase reporter, dose response, counter-screen for Shn3 3'UTR targeting project, Clone20-Shn3RL cells, dual-Glo, cherry-pick, set 2 (AID 720724); type: functional, cell-based; details: Dual-Go Shn3RL
[17] = test system: Streptococcus sp. 'group A'; assay: growth inhibition of control SK(-) GAS strain, dose response, counter-screen for streptokinase expression inhibitor project, luminescence, kanamycin, BacTiterGlo, confirmation (AID 1900); type: functional, organism-based
[18] = test system: Streptococcus; assay: Group A Streptococcus viability loss, dose response, counter-screen for streptokinase expression inhibitor project, luminescence, BacTiterGlo (AID 1915); type: functional, organism-based;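 also: potency for reduction of bacterial viability or growth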
[19] = Luminescence Cell-Based Dose Retest to Confirm Inhibitors of Cancer Stem Cells. [Related pubchem assays (depositor defined):AID2717, AID2721]; type: functional, Homo sapiens; details: Homo sapiens
[20] = Shn3 3'UTR reporter inhibitors, dose response, cell-based, Clone20 osteoblasts, firefly luciferase, cherry-picked (AID 624132); type: functional;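 also: firefly luciferase luminescence from reporter carrying the Shn3 3'UTR in osteoblasts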
[21] = reduction of Shn3 3'UTR firefly luciferase signal, dose response, Schnurri-3 inhibitor project, cell-based, Clone20 osteoblasts, cherry-pick, set 2 (AID 720490); type: functional;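 also: actives lower the luminescence signal as inhibitors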
[22] = biological target: T3, Heat shock factor protein 1 (Mus musculus, UniProt P38532); assay: inhibition of MG132-induced HSE-luciferase signal, confirmation, cell-based, NIH3T3, luminescence, dose retest (AID 2382); type: functional;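 also: NIH3T3 fibroblasts with HSF1-driven luciferase reporter stressed by proteasome inhibitor MG132; luminescence from HSF1-driven luciferase expression after 8 hours of MG132 stress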
T3 sequence (P38532 whole entry): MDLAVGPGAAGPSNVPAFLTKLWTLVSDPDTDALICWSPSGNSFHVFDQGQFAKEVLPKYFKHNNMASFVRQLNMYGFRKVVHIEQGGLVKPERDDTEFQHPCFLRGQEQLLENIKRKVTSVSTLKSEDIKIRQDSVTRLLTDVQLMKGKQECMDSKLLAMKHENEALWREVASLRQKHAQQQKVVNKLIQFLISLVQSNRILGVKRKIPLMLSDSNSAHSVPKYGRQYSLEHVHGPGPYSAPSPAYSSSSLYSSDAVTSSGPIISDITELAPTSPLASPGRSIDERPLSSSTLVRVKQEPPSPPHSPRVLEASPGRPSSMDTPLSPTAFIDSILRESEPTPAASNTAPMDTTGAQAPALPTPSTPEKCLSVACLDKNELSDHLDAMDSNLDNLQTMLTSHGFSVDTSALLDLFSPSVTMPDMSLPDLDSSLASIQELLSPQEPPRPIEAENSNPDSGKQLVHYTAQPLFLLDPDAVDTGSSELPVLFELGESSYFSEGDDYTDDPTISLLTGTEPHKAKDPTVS

[23] = test system: INS1; assay: beta cell apoptosis inhibitors, cytokine rescue, dose response, luminescence, retest (AID 449756); type: functional, cell-based; details: Rattus norvegicus;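 also: cell death triggered by IL-1 beta plus TNF-alpha plus IFN-gamma mixture; protective hits raise ATP signal compared with cytokine alone wells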
[24] = biological target: T4, Methionyl-tRNA synthetase, putative (Trypanosoma brucei brucei, UniProt Q38C91); type: functional, Trypanosoma brucei brucei strain 927/4 GUTat10.1
T4 sequence (Q38C91 whole entry): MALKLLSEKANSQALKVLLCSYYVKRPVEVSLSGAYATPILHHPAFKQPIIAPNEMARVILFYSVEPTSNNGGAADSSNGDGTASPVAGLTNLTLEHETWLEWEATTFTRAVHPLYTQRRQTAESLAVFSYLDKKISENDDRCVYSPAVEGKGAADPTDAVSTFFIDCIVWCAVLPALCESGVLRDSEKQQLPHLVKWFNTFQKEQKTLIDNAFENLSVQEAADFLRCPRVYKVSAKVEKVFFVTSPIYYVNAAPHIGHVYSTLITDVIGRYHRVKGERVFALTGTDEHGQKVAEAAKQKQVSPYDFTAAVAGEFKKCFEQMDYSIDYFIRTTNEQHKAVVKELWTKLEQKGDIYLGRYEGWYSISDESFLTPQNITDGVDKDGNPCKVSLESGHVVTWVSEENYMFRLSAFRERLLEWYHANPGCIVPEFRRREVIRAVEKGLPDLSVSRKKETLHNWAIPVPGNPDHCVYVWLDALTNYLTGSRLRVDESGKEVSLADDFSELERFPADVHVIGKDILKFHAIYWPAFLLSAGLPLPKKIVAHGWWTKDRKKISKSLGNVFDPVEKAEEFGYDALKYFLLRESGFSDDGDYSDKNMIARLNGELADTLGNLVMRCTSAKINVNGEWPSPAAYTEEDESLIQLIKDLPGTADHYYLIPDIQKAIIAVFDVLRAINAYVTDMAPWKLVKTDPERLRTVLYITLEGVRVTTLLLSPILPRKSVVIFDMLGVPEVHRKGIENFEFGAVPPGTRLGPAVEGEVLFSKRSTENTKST

[25] = biological target: T4, Methionyl-tRNA synthetase, putative; type: functional, Trypanosoma brucei brucei strain 927/4 GUTat10.1; remark: listed apart in the source
[26] = Late stage counterscreen for inhibitors of Trypanosoma brucei methionyl tRNA synthetase (MetRS): Luminescence-based cell-based high throughput dose response assay to identify compounds that are cytotoxic to Jurkat human T lymphocyte cells.; type: functional
[27] = Counterscreen for inhibitors of Trypanosoma brucei methionyl tRNA synthetase (MetRS): Luminescence-based cell-based high throughput dose response assay to identify compounds that are cytotoxic to Jurkat human T lymphocyte cells.; type: functional
[28] = TRPM1 promoter luciferase reporter signal decrease, dose response, MITF inhibitor project, cell-based, SK-MEL-5, dry powder, set 8 (AID 624430); type: functional
[29] = MITF Orthogonal Assay: SK-MEL-5 CTG Assay Measured in Cell-Based System Using Plate Reader - 2084-02_Inhibitor_Dose_DryPowder_Activity_Set7.; type: functional
[30] = MITF: Counter assay: A375 proliferation Measured in Cell-Based System Using Plate Reader - 2084-03_Inhibitor_Dose_DryPowder_Activity_Set8.; type: functional; details: A-375
[31] = inhibitors of non-replicating M. tuberculosis, dose response, luciferase, dry powder (AID 651620); type: functional; details: Mycobacterium tuberculosis
[32] = inhibitors of non-replicating M. tuberculosis, dose response, luciferase, dry powder (AID 651619); type: functional; details: Mycobacterium tuberculosis
[33] = biological target: Paired box protein Pax-8 (Homo sapiens, UniProt Q06710); assay: inhibitors of PAX8-driven TPO luciferase reporter, dose response, RMG-I cells, cherry-pick (AID 687027); type: functional, cell-based;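 also: luciferase reporter driven by Pax8 target thyroperoxidase promoter measured by SteadyGlo luminescence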
Paired box protein Pax-8, sequence (Q06710 whole entry): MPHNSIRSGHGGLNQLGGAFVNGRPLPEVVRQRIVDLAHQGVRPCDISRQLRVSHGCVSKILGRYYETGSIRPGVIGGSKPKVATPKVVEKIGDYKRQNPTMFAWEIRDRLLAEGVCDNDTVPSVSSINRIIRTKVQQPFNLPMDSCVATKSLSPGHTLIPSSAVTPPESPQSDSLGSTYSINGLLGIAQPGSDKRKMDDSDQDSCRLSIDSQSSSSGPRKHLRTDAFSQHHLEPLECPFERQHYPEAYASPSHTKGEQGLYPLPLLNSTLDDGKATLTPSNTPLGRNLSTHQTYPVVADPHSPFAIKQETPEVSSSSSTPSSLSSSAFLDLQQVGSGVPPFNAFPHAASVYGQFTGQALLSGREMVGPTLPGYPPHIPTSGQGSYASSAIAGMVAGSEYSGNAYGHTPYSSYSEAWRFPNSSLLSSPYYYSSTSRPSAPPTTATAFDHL

[34] = IGROV1 ovarian cancer cell cytotoxicity, dose response, PAX8 inhibitor project, plate reader, dry powder samples (AID 743043); type: functional, cell-based; details: IGROV-1
[35] = NIH:OVCAR-3 ovarian cancer cell cytotoxicity, dose response, PAX8 inhibitor project, plate reader, dry powder samples (AID 743044); type: functional, cell-based
[36] = IOSE-T80 ovarian epithelial cell cytotoxicity, dose response, cytotoxicity control for PAX8 inhibitor project, plate reader, dry powder samples (AID 743045); type: functional, cell-based
[37] = cytotoxicity in OVCAR8 ovarian cancer cells, dose response, PAX8 project, cell-based, plate reader, dry powder samples (AID 743197); type: functional; details: OVCAR-8
[38] = biological target: Disintegrin and metalloproteinase domain-containing protein 17 (Homo sapiens, UniProt P78536); assay: ADAM17 protease inhibitors, dose response, counter-screen for ADAM10 exosite inhibitor project, biochemical, quenched FRET substrate (AID 743253)
Disintegrin and metalloproteinase domain-containing protein 17, sequence (P78536 whole entry, the tested form may be a part): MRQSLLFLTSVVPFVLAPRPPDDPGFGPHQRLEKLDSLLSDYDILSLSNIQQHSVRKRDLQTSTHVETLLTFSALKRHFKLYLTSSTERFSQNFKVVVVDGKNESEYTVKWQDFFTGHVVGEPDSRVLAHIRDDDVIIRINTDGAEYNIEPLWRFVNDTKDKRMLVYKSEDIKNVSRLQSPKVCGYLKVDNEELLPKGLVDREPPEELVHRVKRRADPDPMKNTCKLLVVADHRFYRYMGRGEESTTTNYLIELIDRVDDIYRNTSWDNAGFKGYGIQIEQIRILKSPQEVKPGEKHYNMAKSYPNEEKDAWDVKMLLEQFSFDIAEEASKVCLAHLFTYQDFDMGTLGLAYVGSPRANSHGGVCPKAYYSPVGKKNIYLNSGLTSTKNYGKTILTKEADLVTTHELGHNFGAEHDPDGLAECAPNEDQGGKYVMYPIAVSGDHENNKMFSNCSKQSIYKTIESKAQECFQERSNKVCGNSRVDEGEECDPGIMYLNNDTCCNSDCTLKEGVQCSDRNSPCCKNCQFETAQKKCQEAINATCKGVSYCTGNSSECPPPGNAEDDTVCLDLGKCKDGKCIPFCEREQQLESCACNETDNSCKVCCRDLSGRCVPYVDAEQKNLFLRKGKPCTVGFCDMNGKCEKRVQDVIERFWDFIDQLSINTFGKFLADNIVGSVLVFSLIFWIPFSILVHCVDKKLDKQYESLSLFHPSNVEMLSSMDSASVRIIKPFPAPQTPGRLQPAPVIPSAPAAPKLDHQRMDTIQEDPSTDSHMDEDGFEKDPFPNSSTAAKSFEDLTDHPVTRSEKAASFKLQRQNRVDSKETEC

[39] = cells; type: functional, cell-based
[40] = cells; type: functional, cell-based; remark: listed apart in the source
[41] = ADAM10 inhibitors, peptide cleavage, dose response, biochemical, QFRET (AID 743254);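 also: ADAM10 enzyme with the DM2 quenched FRET peptide as substrate; EDANS fluorescence gain as the protease cuts the substrate; inhibitor potency against ADAM10 proteolytic activity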

O=c1nc(Nc2ccc(OCc3ccccc3)cc2)sc2ncccc12
IC50 [1]: 2.79 µM (active)
IC50 [2]: 2.86 µM (active)
IC50 [3]: 940 nM (active)
CC50 [4]: > 25 µM (active)
IC50 [5]: 2.38 µM (active)

COc1ccc(N2C(C)=CC(=Cc3sc4ccccc4[n+]3C)C=C2C)cc1
AC50 [6]: 14.3 µM (active)
EC50 [7]: 359 nM (inconclusive)
EC50 [8]: 4 µM (inconclusive)
IC50 [9]: 60.3 µM (active)
AC50 [10]: 315 nM (active)
EC50 [11]: 1.38 µM (active)
EC50 [12]: 2.06 µM (inconclusive)
IC50 [13]: 246 nM (active)
EC50 [14]: > 29.9 µM (inactive)
AC50 [15]: 3.36 µM (active)

COc1c(CC=C(C)C)cc(C2CC(=O)c3c(O)cc(O)cc3O2)cc1CC=C(C)C (stereo unspecified)
AC50 [16]: 24.6 µM (active)
EC50 [17]: 2.47 µM (active)
EC50 [18]: 3.2 µM (active)
AC50 [19]: 3.04 µM (active)
AC50 [20]: 5.42 µM (active)
AC50 [21]: 2.82 µM (active)
EC50 [22]: 11.8 µM (active)
AC50 [23]: 4.52 µM (active)

CCO[C@H]1OC(C(=O)NCc2nc3ccccc3[nH]2)=C[C@@H](c2ccc(Br)cc2)[C@@H]1CCCO
IC50 [24]: 5.73 µM (active)
IC50 [25]: 8.41 µM (active)
IC50 [26]: 57 µM (inactive)
IC50 [27]: 83.3 µM (inactive)

O=C1C(Nc2cccc(Cl)c2)=C(N2CCCCC2)C(=O)c2ccccc21
AC50 [28]: 3.46 µM (active)
AC50 [29]: 15.7 µM (active)
AC50 [30]: 50.1 µM (active)

COc1ccccc1-c1nnc(SCc2ccccn2)o1
IC90 [31]: 31 µM (active)
IC90 [32]: 31 µM (active)

COc1cccc(S(=O)(=O)N2CC[C@@H]3[C@@H](CO)Nc4ccc(-c5ccccc5OC)cc4[C@@H]32)c1
AC50 [33]: 10.6 µM (active)
AC50 [34]: 36.5 µM (active)
AC50 [35]: 19.6 µM (active)
AC50 [36]: 33 µM (active)
AC50 [37]: 31.1 µM (active)

COc1ccc(S(=O)(=O)N2CCC(c3cc(-c4cccc5ccccc45)[nH]n3)CC2)cc1
IC50 [38]: > 69.5 µM (inactive)
EC50 [39]: > 350 µM (not active)
EC50 [40]: > 350 µM (not active)
IC50 [41]: > 69.5 µM (inactive)

— ChEMBL document CHEMBL1201862, “PubChem BioAssay data set” (2004)
